IC50 and HbA1c levels lowered data for 28 compounds are collected here from patent US8580768B2, “Cannabinoid receptor antagonists-inverse agonists useful for treating metabolic disorders, including obesity and diabetes” (Jenrin Discovery, Inc., priority 2010, dated 2013).

In the first experiment the target is T1, human cannabinoid CB1 receptor (Homo sapiens, UniProt P21554).
T1 construct: expressed in transfected cells; host or cells: Chinese hamster ovary (CHO) cells, stably transfected; membrane preparations
T1 sequence (P21554 whole entry): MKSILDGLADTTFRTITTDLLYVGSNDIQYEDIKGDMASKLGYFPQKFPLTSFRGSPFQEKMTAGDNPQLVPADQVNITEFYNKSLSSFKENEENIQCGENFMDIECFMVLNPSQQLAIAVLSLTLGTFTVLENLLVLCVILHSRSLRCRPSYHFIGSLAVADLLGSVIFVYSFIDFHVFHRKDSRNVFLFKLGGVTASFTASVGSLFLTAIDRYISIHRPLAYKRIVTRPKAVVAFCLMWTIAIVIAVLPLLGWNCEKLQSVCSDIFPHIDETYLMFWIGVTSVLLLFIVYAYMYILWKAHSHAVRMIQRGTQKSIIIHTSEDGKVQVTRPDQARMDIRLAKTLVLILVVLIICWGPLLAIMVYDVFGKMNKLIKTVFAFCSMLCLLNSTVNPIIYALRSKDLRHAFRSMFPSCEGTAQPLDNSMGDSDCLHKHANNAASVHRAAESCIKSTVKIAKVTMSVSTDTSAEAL
Briefly: CB1 receptor affinity, [3H]CP-55,940 radioligand displacement on CHO cell membrane preparations. In kind it is binding.
Conditions: not given
The procedure:
CB1 receptor affinities can be determined using membrane preparations of Chinese hamster ovary (CHO) cells in which the human cannabinoid CB1 receptor is stably transfected (Biochem J. 1991, 279, 129-134) in conjunction with [3H]CP-55,940 as radioligand. After incubation of a freshly prepared cell membrane preparation with the [3H]-radioligand, with or without addition of test compound, separation of bound and free ligand is performed by filtration over glass fiber filters. Radioactivity on the filter is measured by liquid scintillation counting. The IC50 values can be determined from at least three independent measurements.
The CB1 IC50 values for tested compounds are as follows.
(Displacement assays read how much labelled ligand stays bound in the presence of the test substance.)
By IC50 is commonly meant the concentration at which inhibition is half-maximal. For `CCOP(=O)(OCC)C(C)NC(=NS(=O)(=O)c1ccc(Cl)cc1)N1CC(c2ccccc2)C(c2ccc(Cl)cc2)=N1` (stereo not shown) [compound 28], the IC50 was in the range of 1000 to 10000 nM.

Staying with this experiment, now noted: read-out: CB1 IC50.
Consider `COc1ccc(C2=NN(C(=NS(=O)(=O)c3ccc(Cl)cc3)NC(C)C(N)=O)CC2c2ccccc2)cc1` (stereo not shown) [compound 1], for which the IC50 was below 100 nM.

Take `NC(=O)C(CO)NC(=NS(=O)(=O)c1ccc(Cl)cc1)N1CC(c2ccccc2)C(c2ccc(Cl)cc2)=N1` (stereo not shown) [compound 2]: the IC50 is below 100 nM.

Regarding `NS(=O)(=O)CCNC(=NS(=O)(=O)c1ccc(Cl)cc1)N1CC(c2ccccc2)C(c2ccc(Cl)cc2)=N1` (stereo not shown) [compound 3], the IC50 was below 100 nM.

As for `CC(C)C(NC(=NS(=O)(=O)c1cccc(C(N)=O)c1)N1CC(c2ccccc2)C(c2ccc(Cl)cc2)=N1)C(N)=O` (stereo not shown) [compound 4], the half-maximal inhibitory concentration (IC50) lay in the range of 100 to 1000 nM.

In the case of `CC(C)C(NC(=NS(=O)(=O)c1cccc(C#N)c1)N1CC(c2ccccc2)C(c2ccc(Cl)cc2)=N1)C(N)=O` (stereo not shown) [compound 5], the half-maximal inhibitory concentration (IC50) is below 100 nM.

Take `NC(CNC(=NS(=O)(=O)c1ccc(Cl)cc1)N1CC(c2ccccc2)C(c2ccc(Cl)cc2)=N1)=NO` (stereo not shown) [compound 6]: the IC50 was below 100 nM.

In the case of `CC(O)C(NC(=NS(=O)(=O)c1ccc(Cl)cc1)N1CC(c2ccccc2)C(c2ccc(Cl)cc2)=N1)C(N)=O` (stereo not shown) [compound 7], the IC50 was below 100 nM.

For the compound `NC(CCNC(=NS(=O)(=O)c1ccc(Cl)cc1)N1CC(c2ccccc2)C(c2ccc(Cl)cc2)=N1)=NO` (stereo not shown) [compound 8], the IC50 is below 100 nM.

With `CC(C)C(NC(=NS(=O)(=O)c1cccc(C(=N)N)c1)N1CC(c2ccccc2)C(c2ccc(Cl)cc2)=N1)C(N)=O` (stereo not shown) [compound 9], the IC50 is 100 to 1000 nM.

With `COc1cccc(S(=O)(=O)N=C(NC2(C(N)=O)CCC2)N2CC(c3ccccc3)C(c3ccc(Cl)cc3)=N2)c1` (stereo not shown) [compound 10], the half-maximal inhibitory concentration (IC50) was below 100 nM.

For the compound `CC(O)C(NC(=NS(=O)(=O)c1ccc(Cl)cc1)N1CC(c2ccccc2)C(c2ccc(Cl)cc2)=N1)C(=O)NC(CO)C(N)=O` (stereo not shown) [compound 11], the half-maximal inhibitory concentration (IC50) was below 100 nM.

As for `CC(O)C(NC(=NS(=O)(=O)c1cccc(C#N)c1)N1CC(c2ccccc2)C(c2ccc(Cl)cc2)=N1)C(N)=O` (stereo not shown) [compound 12], the IC50 was below 100 nM.

For `CC(O)C(NC(=NS(=O)(=O)c1cccc(C(=N)N)c1)N1CC(c2ccccc2)C(c2ccc(Cl)cc2)=N1)C(N)=O` (stereo not shown) [compound 13], the IC50 was below 100 nM.

Turning to `COc1cccc(S(=O)(=O)N=C(NCCS(N)(=O)=O)N2CC(c3ccccc3)C(c3ccc(Cl)cc3)=N2)c1` (stereo not shown) [compound 14], the IC50 is below 100 nM.

In the case of `N#Cc1cccc(S(=O)(=O)N=C(NCCS(N)(=O)=O)N2CC(c3ccccc3)C(c3ccc(Cl)cc3)=N2)c1` (stereo not shown) [compound 15], the IC50 was below 100 nM.

For the compound `CC(NC(=NS(=O)(=O)c1cccc(C#N)c1)N1CC(c2ccccc2)C(c2ccc(Cl)cc2)=N1)C(N)=O` (stereo not shown) [compound 16], the half-inhibitory concentration (IC50) was below 100 nM.

For the compound `N#Cc1cccc(S(=O)(=O)N=C(NC2(C(N)=O)CCC2)N2CC(c3ccccc3)C(c3ccc(Cl)cc3)=N2)c1` (stereo not shown) [compound 17], the 50% inhibitory concentration (IC50) is below 100 nM.

`COc1cccc(S(=O)(=O)N=C(NC(C)C(N)=O)N2CC(c3ccccc3)C(c3ccc(Cl)cc3)=N2)c1` (stereo not shown) [compound 18]: the IC50 is below 100 nM.

As to `COc1ccc(C2=NN(C(=NS(=O)(=O)c3ccc(Cl)cc3)NCCS(N)(=O)=O)CC2c2ccccc2)cc1` (stereo not shown) [compound 20], the IC50 was below 100 nM.

On to `COc1cccc(S(=O)(=O)N=C(NC(C(N)=O)C2CC2)N2CC(c3ccccc3)C(c3ccc(Cl)cc3)=N2)c1` (stereo not shown) [compound 21], for which the half-maximal inhibitory concentration (IC50) is 100 to 1000 nM.

Consider `N#Cc1cccc(S(=O)(=O)N=C(NC(C(N)=O)C2CCC2)N2CC(c3ccccc3)C(c3ccc(Cl)cc3)=N2)c1` (stereo not shown) [compound 22], for which the IC50 is below 100 nM.

For the compound `NS(=O)(=O)CCNC(=O)CNC(=NS(=O)(=O)c1ccc(Cl)cc1)N1CC(c2ccccc2)C(c2ccc(Cl)cc2)=N1` (stereo not shown) [compound 23], the concentration for half-maximal inhibition (IC50) was below 100 nM.

On to `COC(=O)C=CCNC(=NS(=O)(=O)c1ccc(Cl)cc1)N1CC(c2ccccc2)C(c2ccc(Cl)cc2)=N1` (stereo not shown) [compound 24], for which the IC50 is below 100 nM.

For `CC(O)C(NC(=NS(=O)(=O)c1ccc(Cl)cc1)N1CC(c2ccccc2)C(c2ccc(Cl)cc2)=N1)C(=O)NCCS(N)(=O)=O` (stereo not shown) [compound 25], the IC50 was below 100 nM.

Consider `NS(=O)(=O)CCNC(=O)C(CO)NC(=NS(=O)(=O)c1ccc(Cl)cc1)N1CC(c2ccccc2)C(c2ccc(Cl)cc2)=N1` (stereo not shown) [compound 26], for which the half-maximal inhibitory concentration (IC50) is below 100 nM.

As for `NC(=O)Cc1csc(NC(=NS(=O)(=O)c2ccc(Cl)cc2)N2CC(c3ccccc3)C(c3ccc(Cl)cc3)=N2)n1` (stereo not shown) [compound 27], the 50% inhibitory concentration (IC50) is 1000 to 10000 nM.

Tested on in a further experiment: not given
Assay: not given
The following applies: type 2 diabetes patients not on other anti-diabetic medications; six months of treatment; baseline value 7.9; placebo reduction 0.3%; cited from earlier work.
Consider `Cc1c(C(=O)NN2CCCCC2)nn(-c2ccc(Cl)cc2Cl)c1-c1ccc(Cl)cc1` [rimonabant], for which the HbA1c levels lowered is 0.8%.
